Counter-ions that a name gives are not always drawn. Like-named read-outs stand apart in the source and are kept apart here.
Tests used:
[1] = Protection against a stress due to an environment and new feedstuffs (method of Stephens); format: in vivo, mice; conditions: dose producing 40% increase in feedstuff taken, * no activity was observed up to this dose; for ED40: Mus musculus, po, read-out: Protection against stress in mice, AD 40
Description: (3) Protection against a stress due to an environment and due to new feedstuffs, in male […] (CDl strain, weight about 20 g) in accordance with the method of Stephens (Brit. J. Pharmacol. 1973, 49, 146 P.). The doses (AD 40) which produce a 40% increase in the feedstuff taken were determined.

in vivo = conditions: for LD50 at 48 h: LD 50 over 48 hours
Description: The compounds were administered in the form of their hydrochlorides or of their methanesulphonates.
The acute toxicity was evaluated in Swiss CDl mice of both sexes, of average weight 20 g. The 50% lethal dose (LD 50) of each product was determined by a graphical method.

[2] = test system: emetic effect induced by apomorphine; assay: Antagonism towards emetic effect induced by apomorphine in dogs; format: in vivo; conditions: Canis lupus familiaris, emesis induced by apomorphine, read-out: Antiemetic activity in dogs, AD 50
Source text: Some compounds have also antiemetic activity which was studied with the following test:
(4) Antagonism towards emetic effect induced by apomorphine in dogs (Shallek et al, Arch. Int. Pharmacodyn. 174 (1968) N°. 2, 350-372. Boissier et al, Med. Exp. 6 (1962), 320-326). The results are expressed in active doses 50% (AD 50) and set in Table IX.

[3] = test system: stereotypies induced by apomorphine; assay: Antagonism towards stereotypies induced by apomorphine in rats (method of Janssen); format: in vivo, male Sprague-Dawley (Charles River) rats; conditions: for ED50: Rattus norvegicus, read-out: Antagonism to stereotypies induced by apomorphine in rats, AD 50; for antagonism to stereotypies induced in rats by apomorphine: oral administration; for Antagonism to stereotypies induced by apomorphine in rats, AD 50: oral
Source text: (1) Antagonism towards stereotypies induced by apomorphine in male Sprague-Dawley (Charles River) rats of average weight 130 g, in accordance with the method of Janssen and colleagues (Arzneim. Forsch. 1960, 10, 1003).
(§1) In these two tests, the results are expressed by the 50% active doses (AD 50).

[4] = Catalepsy-inducing effect in rats (method of Tedeschi); format: in vivo, male Sprague-Dawley (Charles River) rats; conditions: for TD50: rat, in vivo, ip
Source text: (2) Catalepsy-inducing effect in rats of the same species and of the same weight, in accordance with the method of Tedeschi and colleagues (Arch. Intern. Pharmacodyn. 1959, 122, 129).
as §1

[5] = Neuro-pharmacological tests (overall conclusion); format: in vivo
Source text: The neuro-pharmacological activity was studied with the aid of the following three tests: […]

[6] = mouse, in vivo, ip, intraperitoneal, mice
[7] = ip, intraperitoneal, results for hydrochlorides given in weight of base
[8] = po, hydrochlorides in weight of base, * = no activity was observed up to this dose
[9] = hydrochlorides in weight of base, * = no activity was observed up to this dose

Structure (SMILES): COc1ccc(S(N)(=O)=O)cc1C(=O)NCC1CCCN1Cc1ccccc1F (stereo not shown) [SL-D.192 (cl)]
- ED40 [1]: 30 mg/kg
- LD50 at 48 h (in vivo; [6]): > 2000 mg/kg

Structure (SMILES): COc1ccc(S(N)(=O)=O)cc1C(=O)NCC1CCCN1C(C)c1ccccc1 (single isomer, unassigned) [SL-D.223 (cl)]
- LD 50 over 48 hours (in vivo; mouse, in vivo, ip, 2880 min): 650 mg/kg

Structure (SMILES): COc1ccc(S(N)(=O)=O)cc1C(=O)NCC1CCCN1C(c1ccccc1)c1ccccc1 (stereo not shown) [SL-D.090 (cl)]
- LD50 at 48 h (in vivo; [6]): > 1500 mg/kg

Structure (SMILES): COc1ccc(S(=O)(=O)N(C)C)cc1C(=O)NCC1CCCN1CC1CC1 (stereo not shown) [77.149]
- ED50 [2]: 0.04 mg/kg
- LD50 at 48 h (in vivo; [6]): 240 mg/kg
- ED50 [3, 7]: 3 mg/kg

Structure (SMILES): COc1ccc(S(N)(=O)=O)cc1C(=O)NCC1CCCN1Cc1cccc(F)c1 (stereo not shown) [SL-D.193 (cl), N-[(1-m-fluorobenzyl-pyrrolidinyl-2)-methyl]-2-methoxy-5-sulphamoyl-benzamide]
- ED40 [1]: 30 mg/kg
- LD50 at 48 h (in vivo; [6]): > 2000 mg/kg
- ED50 [3, 7]: 150 mg/kg

Structure (SMILES): COc1ccc(S(N)(=O)=O)cc1C(=O)NCC1CCCN1Cc1ccc(F)cc1 (racemic) [SL-C.205 (racemic) (cl), N-[(1-p-fluorobenzyl-pyrrolidinyl-2)-methyl]-2-methoxy-5-sulphamoyl-benzamide]
- LD50 at 48 h (in vivo; [6]): 750 mg/kg
- LD50 at 168 h (in vivo; mouse, in vivo, po, LD 50, oral, mice, 7 days): 3000 mg/kg
- TD50 [4]: > 480 mg/kg
- ED50 [3, 7]: 30 mg/kg
- ED50 [3, 8]: 85 mg/kg

Structure (SMILES): CCN1CCCC1CNC(=O)c1cc(S(N)(=O)=O)ccc1OC (stereo not shown) [Sulpiride (cl), N-[(1-ethylpyrrolidinyl-2)-methyl]-2-methoxy-5-sulphamoyl-benzamide hydrochloride, reference compound]
- TD50 [4]: > 100 mg/kg
- ED50 [3, 7]: 60 mg/kg
- ED50 [3, 8]: > 600 mg/kg
- antagonism to stereotypies induced in rats by apomorphine [3]: inactive

Structure (SMILES): C#CCN1CCCC1CNC(=O)c1cc(S(N)(=O)=O)ccc1OC (stereo not shown) [SL-C.299 (cl)]
- LD50 at 48 h (in vivo; [6]): 170 mg/kg
- TD50 [4]: > 150 mg/kg
- ED50 [3, 7]: 80 mg/kg

Structure (SMILES): COc1ccc(S(N)(=O)=O)cc1C(=O)NCC1CCCN1Cc1ccc(F)cc1 (racemic) [SL-C.205 (racemic) (ms), N-[(1-p-fluorobenzyl-pyrrolidinyl-2)-methyl]-2-methoxy-5-sulphamoyl-benzamide]
- ED40 [1]: 60 mg/kg
- LD50 at 48 h (in vivo; mouse, in vivo, iv, mice): 190 mg/kg
- Antagonism to stereotypies induced by apomorphine in rats, AD 50 ([3]; hydrochlorides in weight of base, * = no activity was observed up to this dose, racemic (ms)): 75 mg/kg

Structure (SMILES): COc1ccc(S(N)(=O)=O)cc1C(=O)NCC1CCCN1Cc1ccc(F)cc1 (single isomer, unassigned) [SL-C.205 1 (ms), N-[(1-p-fluorobenzyl-pyrrolidinyl-2)-methyl]-2-methoxy-5-sulphamoyl-benzamide]
- ED40 [1]: > 30 mg/kg
- LD50 at 48 h (in vivo; mouse, in vivo, iv, mice): 160 mg/kg
- activity in neuro-pharmacological tests ([5]; in vivo): practically inactive
- Antagonism to stereotypies induced by apomorphine in rats, AD 50 [3, 9]: > 150 mg/kg

Structure (SMILES): COc1ccc(S(N)(=O)=O)cc1C(=O)NC[C@@H]1CCCN1CC1CCCCC1 [77 205 (S) (+) (ms)]
- ED50 [2]: 0.014 mg/kg

Structure (SMILES): COc1ccc(S(N)(=O)=O)cc1C(=O)NCC1CCCN1Cc1ccc(F)cc1 (stereo not shown) [SL-C.205, N-[(1-p-fluorobenzyl-pyrrolidinyl-2)-methyl]-2-methoxy-5-sulphamoyl-benzamide]
- toxicity compared with Sulpiride (in vivo; than Sulpiride): much less toxic
- induction of catalepsy ([4]; up to high doses): does not induce catalepsy up to high doses
- activity compared with Sulpiride ([5]; than Sulpiride): markedly more active
- antagonism to stereotypies induced in rats by apomorphine [3]: powerful antagonistic agent

Structure (SMILES): COc1ccc(S(N)(=O)=O)cc1C(=O)NCC1CCCN1CC=Cc1ccc(F)cc1 (stereo not shown) [SL-D.194 (cl)]
- LD50 at 48 h (in vivo; [6]): > 2000 mg/kg

Structure (SMILES): COc1ccc(S(N)(=O)=O)cc1C(=O)NCC1CCCN1Cc1cccc(Cl)c1 (stereo not shown) [SL-C.193 (cl)]
- TD50 [4]: > 300 mg/kg

Structure (SMILES): COc1ccc(S(N)(=O)=O)cc1C(=O)NCC1CCCN1C(C)c1ccccc1 (single isomer, unassigned) [SL-D.222 (cl), 1(-)-N-[(1-α-methylbenzyl-pyrrolidinyl-2-)-methyl]-2-methoxy-5-sulphamoyl-benzamide]
- LD50 at 48 h (in vivo; [6]): 625 mg/kg

Structure (SMILES): CCS(=O)(=O)c1ccc(OC)c(C(=O)NCC2CCCN2CC2CC2)c1 (stereo not shown) [77.206]
- LD50 at 48 h (in vivo; [6]): 310 mg/kg
- ED50 [3, 7]: 3 mg/kg

Structure (SMILES): COc1ccc(S(N)(=O)=O)cc1C(=O)NCC1CCCN1Cc1ccc(F)cc1 (single isomer, unassigned) [SL-C.205 d (ms), N-[(1-p-fluorobenzyl-pyrrolidinyl-2)-methyl]-2-methoxy-5-sulphamoyl-benzamide]
- Protection against stress in mice, AD 40 ([1]; oral): 30 mg/kg
- LD 50 over 48 hours (in vivo; mouse, in vivo, iv): 160 mg/kg
- activity relative to the racemic compound ([5]; depending on the chosen method of evaluation): 1.5 times or twice
- Antagonism to stereotypies induced by apomorphine in rats, AD 50 [3, 9]: 50 mg/kg

Structure (SMILES): COc1ccc(S(N)(=O)=O)cc1C(=O)NC[C@@H]1CCCN1CC1CC1 [77.075 (S) (+) (ms), N-[(1-cyclopropylmethyl-pyrrolidinyl-2)-methyl]-2-methoxy-5-sulphamoyl-benzamide]
- LD50 at 48 h (in vivo; [6]): 350 mg/kg
- ED50 [3, 7]: 4 mg/kg

Structure (SMILES): COc1ccc(S(N)(=O)=O)cc1C(=O)NCC1CCCN1CC1CCCCC1 (stereo not shown) [77.205]
- LD50 at 48 h (in vivo; [6]): 360 mg/kg
- ED50 [3, 7]: 8 mg/kg

Structure (SMILES): COc1ccc(S(N)(=O)=O)cc1C(=O)NCC1CCCN1CC1CC1 (racemic) [SL-C.036 (racemic) (cl), N-[(1-cyclopropylmethyl-pyrrolidinyl-2)-methyl]-2-methoxy-5-sulphamoyl-benzamide]
- ED50 [2]: 0.037 mg/kg
- LD50 at 48 h (in vivo; [6]): 400 mg/kg
- ED50 [3, 7]: 15 mg/kg

Structure (SMILES): COc1ccc(S(C)(=O)=O)cc1C(=O)NCC1CCCN1Cc1ccc(F)cc1 (stereo not shown) [SL-D.163 (cl)]
- LD50 at 48 h (in vivo; [6]): 400 mg/kg
- ED50 [3, 7]: 3 mg/kg

Structure (SMILES): COc1ccc(S(C)(=O)=O)cc1C(=O)NCC1CCCN1CC1CC1 (stereo not shown) [77.173]
- LD50 at 48 h (in vivo; [6]): 235 mg/kg
- ED50 [3, 7]: 1.5 mg/kg

Structure (SMILES): COc1ccc(S(N)(=O)=O)cc1C(=O)NCC1CCCN1CCC#N (stereo not shown) [Sl-C.262 (cl), N-[1-(2-cyanoethyl)-pyrrolidinyl-2-methyl]-2-methoxy-5-sulphamoyl-benzamide]
- LD50 at 48 h (in vivo; [6]): > 2000 mg/kg

Structure (SMILES): COc1ccc(Cl)cc1C(=O)NCC1CCCN1Cc1ccc(F)cc1 (stereo not shown) [SL-D.165 (cl), N-[(1-p-fluorobenzyl-pyrrolidinyl-2)-methyl]-2-methoxy-5-chloro-benzamide]
- ED40 [1]: 30 mg/kg
- LD50 at 48 h (in vivo; [6]): 275 mg/kg
- ED50 [3, 7]: 1.5 mg/kg

— US4172143A, “2-Methoxy-benzamide derivatives” (priority 1974, dated 1979)
